Laboratory results taken from patent publication US9663536B2, “Inhibitors of human immunodeficiency virus replication” (priority 2013, dated 2017).

system: recombinant NL-Rluc virus; assay: Inhibition of HIV replication (NL-Rluc virus in MT-2 cells, luciferase readout); type: cell-based; conditions: Human immunodeficiency virus 1, MT2, 120 h

Structure (SMILES) | EC50 [nM]
Cc1nc2cc3nn2c(c1[C@H](OC(C)(C)C)C(=O)O)N1CCC(C)(CC1)OC/C=C/COc1c(F)cccc1Cc1cnn-3c1 [Example 27, (2S)-2-(tert-Butoxy)-2-[(23E)-19-fluoro-4,27-dimethyl-21,26-dioxa-1,5,7,8,10,11-hexaazahexacyclo[25.2.2.1^6,9.1^10,13.0^2,7.0^15,20]tritriaconta-2,4,6(33),8,11,13(32),15(20),16,18,23-decaen-3-yl]acetic acid] | 48
Cc1nc2cc3nn2c(c1[C@H](OC(C)(C)C)C(=O)O)N1CCC(C)(CCCCCOc2cccc(c2)Cc2cnn-3c2)CC1 [Example 39, (2S)-2-(tert-Butoxy)-2-{4,26-dimethyl-20-oxa-1,5,7,8,10,11-hexaazahexacyclo[24.2.2.1^6,9.1^10,13.1^15,19.0^2,7]tritriaconta-2,4,6(33),8,11,13(32),15(31),16,18-nonaen-3-yl}acetic acid] | 6
Cc1nc2cc3nn2c(c1[C@H](OC(C)(C)C)C(=O)O)N1CCC(C)(CC1)OCCCCCOc1ccccc1Cc1cnn-3c1 [Example 33, (2S)-2-(tert-Butoxy)-2-{4,28-dimethyl-21,27-dioxa-1,5,7,8,10,11-hexaazahexacyclo[26.2.2.1^6,9.1^10,13.0^2,7.1^15,20]tetratriaconta-2,4,6(34),8,11,13 (33), 15 (20), 16,18-nonaen-3-yl}acetic acid] | 2
Cc1nc2cc3nn2c(c1[C@H](OC(C)(C)C)C(=O)O)N1CCC(C)(CC1)OC/C=C/COc1ccc(F)cc1Cc1cnn-3c1 [Example 29, (2S)-2-(tert-Butoxy)-2-[(23E)-17-fluoro-4,27-dimethyl-21,26-dioxa-1,5,7,8,10,11-hexaazahexacyclo[25.2.2.1^6,9.1^10,13.0^2,7.0^15,20]tritriaconta-2,4,6(33),8,11,13(32),15(20),16,18,23-decaen-3-yl]acetic acid] | 2
Cc1nc2cc3nn2c(c1[C@H](OC(C)(C)C)C(=O)O)N1CCC(C)(CC/C=C/C[C@@H](C)Oc2cc(F)ccc2Cc2cnc-3s2)CC1 [Example 19, (2S)-2-(tert-Butoxy)-2-[(22R,24E)-18-fluoro-4,22,28-trimethyl-21-oxa-33-thia-1,5,7,8,11-pentaazahexacyclo[26.2.2.1^6,9.1^10,13.0^2,7.0^15,20]tetratriaconta-2,4,6(34),8,10,12,15(20),16,18,24-decaen-3-yl]acetic acid] | 17
Cc1nc2cc3nn2c(c1[C@H](OC(C)(C)C)C(=O)O)N1CCC(C)(CC/C=C/COc2ccccc2Cn2cc-3cn2)CC1 [Example 41] | 3
Cc1nc2cc3nn2c(c1[C@H](OC(C)(C)C)C(=O)O)N1CCC(C)(CC1)OC/C=C\CCOc1ccccc1Cc1cnn-3c1 [Example 32, (2S)-2-(tert-butoxy)-2-[(24Z)-4,28-dimethyl-21,27-dioxa-1,5,7,8,10,11-hexaazahexacyclo[26.2.2.1^6,9.1^10,13.0^2,7.0^15,20]tetratriaconta-2,4,6(34),8,11,13(33),15(20),16,18,24-decaen-3-yl]acetic acid] | 6
Cc1nc2cc3nn2c(c1[C@H](OC(C)(C)C)C(=O)O)N1CCC(C)(CCCCCCc2ccccc2Cc2cnc-3s2)CC1 [Example 14, (2S)-2-(tert-Butoxy)-2-{4,27-dimethyl-32-thia-1,5,7,8,11-pentaazahexacyclo[25.2.2.1^6,9.1^10,13.0^2,7.0^15,20]tritriaconta-2,4,6(33),8,10,12,15(20),16,18-nonaen-3-yl}acetic acid] | 41
Cc1nc2cc3nn2c(c1[C@H](OC(C)(C)C)C(=O)O)N1CCC(C)(/C=C/CCCc2cc(F)ccc2Cc2cnc-3s2)CC1 (single isomer, unassigned) [Example 16] | 12
Cc1nc2cc3nn2c(c1[C@H](OC(C)(C)C)C(=O)O)N1CCC(C)(CC1)OCC=CCOc1ccccc1Cc1cnc-3s1 [Example 7, (2S)-2-(tert-Butoxy)-2-[4,27-dimethyl-21,26-dioxa-32-thia-1,5,7,8,11-pentaazahexacyclo[25.2.2.1^6,9.1^10,13.0^2,7.0^15,20]tritriaconta-2,4,6(33),8,10,12,15(20),16,18,23-decaen-3-yl]acetic acid] | 6
Cc1nc2cc3nn2c(c1[C@H](OC(C)(C)C)C(=O)O)N1CCC(C)(CC/C=C/CCc2ccc(F)cc2Cc2cnc-3s2)CC1 (single isomer, unassigned) [Example 21] | 13
Cc1nc2cc3nn2c(c1[C@H](OC(C)(C)C)C(=O)O)N1CCC(C)(CC1)OC/C=C\CCc1ccccc1Cc1cnc-3s1 (single isomer, unassigned) [Example 2] | 2
Cc1nc2cc3nn2c(c1[C@H](OC(C)(C)C)C(=O)O)N1CCC(C)(CC1)OCCCCOc1ccc(F)cc1Cc1cnn-3c1 [Example 30, (2S)-2-(tert-Butoxy)-2-{17-fluoro-4,27-dimethyl-21,26-dioxa-1,5,7,8,10,11-hexaazahexacyclo[25.2.2.1^6,9.1^10,13.0^2,7.0^15,20]tritriaconta-2,4,6(33),8,11,13(32),15(20),16,18-nonaen-3-yl}acetic acid] | 2
Cc1nc2cc3nn2c(c1[C@H](OC(C)(C)C)C(=O)O)N1CCC(C)(CC/C=C/COc2ccccc2Cc2cnc-3s2)CC1 [Example 24, (2S)-2-(tert-Butoxy)-2-[(23E)-4,27-dimethyl-21-oxa-32-thia-1,5,7,8,11-pentaazahexacyclo[25.2.2.1^6,9.1^10,13.0^2,7.0^15,20]tritriaconta-2,4,6(33),8,10,12,15(20),16,18,23-decaen-3-yl]acetic Acid] | 11
Cc1nc2cc3nn2c(c1[C@H](OC(C)(C)C)C(=O)O)N1CCC(C)(CC1)OC/C=C/CCc1cccc(c1)Cc1cnc-3s1 [Example 3, (2S)-2-(tert-Butoxy)-2-[(22E)-4,26-dimethyl-25-oxa-32-thia-1,5,7,8,11-pentaazahexacyclo[24.2.2.1^6,9.1^10,13.1^15,19.0^2,7]tritriaconta-2,4,6(33),8,10,12,15(31),16,18,22-decaen-3-yl]acetic acid] | 3
Cc1nc2cc3nn2c(c1[C@H](OC(C)(C)C)C(=O)O)N1CCC(C)(CC/C=C\CCOc2ccccc2Cc2cnn-3c2)CC1 [Example 35, (2S)-2-(tert-Butoxy)-2-[(24Z)-4,28-dimethyl-21-oxa-1,5,7,8,10,11-hexaazahexacyclo[26.2.2.1^6,9.1^10,13.0^2,7.0^15,20]tetratriaconta-2,4,6(34),8,11,13(33),15(20),16,18,24-decaen-3-yl]acetic acid] | 20
Cc1nc2cc3nn2c(c1[C@H](OC(C)(C)C)C(=O)O)N1CCC(C)(CC1)OC/C=C/CCOc1ccccc1Cc1cnc-3s1 [Example 8, (2S)-2-(tert-Butoxy)-2-[(24E)-4,28-dimethyl-21,27-dioxa-33-thia-1,5,7,8,11-pentaazahexacyclo[26.2.2.1^6,9.1^10,13.0^2,7.0^15,20]tetratriaconta-2,4,6(34),8,10,12,15(20),16,18,24-decaen-3-yl]acetic Acid] | 8
Cc1nc2cc3nn2c(c1[C@H](OC(C)(C)C)C(=O)O)N1CCC(C)(CC1)OCCCC[C@@H](C)Oc1ccccc1Cc1cnc-3s1 [Example 11] | 3
Cc1nc2cc3nn2c(c1[C@H](OC(C)(C)C)C(=O)O)N1CCC(C)(CC1)OC/C=C/COc1ccccc1Cc1cnc-3o1 [Example 10, (2S)-2-(tert-Butoxy)-2-[(23E)-4,27-dimethyl-21,26,32-trioxa-1,5,7,8,11-pentaazahexacyclo[25.2.2.1^6,9.1^10,13.0^2,7.0^15,20]tritriaconta-2,4,6(33),8,10,12,15 (20),16,18,23-decaen-3-yl]acetic acid] | 2
